Activity calls are given as the source filed them. The rule behind the calls is not given here.

In the first test the test system is spleen. Briefly: Cytoprotective activity against 137Cs gamma-radiation-induced apoptosis in C57/BL6 mouse spleen cells preincubated for 1 hr followed by irradiation measured after 6 to 24 hrs by annexin V/FITC-propidium iodide staining-based FACS analysis. The class given is functional, cell-based. Background: In flow cytometry, cells or beads pass a laser one at a time.
Regarding `NC(=O)c1ccc2[nH]c(-c3ccc(Oc4ccc5ccccc5c4)cc3)nc2c1`, the result was Active.

Consider `NC(=O)c1ccc2[nH]c(-c3ccc(Sc4ccc(Cl)cc4)nc3)nc2c1`, for which the result was Active.

For `NC(=O)c1ccc2[nH]c(-c3ccc(Sc4ccc(F)c(Cl)c4)cc3)nc2c1`, the outcome was Active.

Consider `NC(=O)c1ccc2[nH]c(-c3ccc(Sc4ccc(O)cc4)cc3)nc2c1`, for which the result was Active.

Regarding `NC(=O)c1ccc2[nH]c(-c3ccc(Oc4ccc(Br)c(O)c4)cc3)nc2c1`, the result was Active.

Regarding `COc1ccc(Sc2ccc(-c3nc4cc(C(N)=O)ccc4[nH]3)cc2)cc1`, the outcome was Active.

Take `NC(=O)c1ccc2[nH]c(-c3ccc(Oc4ccc(I)cc4)cc3)nc2c1`: the outcome was Active.

With `NC(=O)c1ccc2[nH]c(-c3ccc(Oc4ccc(Br)cc4)cc3)nc2c1`, the result was Active.

Consider `Cc1ccc(Sc2ccc(-c3nc4cc(C(N)=O)ccc4[nH]3)cn2)cc1`, for which the result was Active.

On to `COc1cc(Oc2ccc(-c3nc4cc(C(N)=O)ccc4[nH]3)cc2)ccc1Br`, for which the outcome was Active.

Take `NC(=O)c1ccc2[nH]c(-c3ccc(Oc4ccc5c(c4)OCO5)cc3)nc2c1`: the result was Active.

In the case of `COc1cccc(Sc2ccc(-c3nc4cc(C(N)=O)ccc4[nH]3)cc2)c1`, the outcome was Active.

Consider `NC(=O)c1ccc2[nH]c(-c3ccc(Oc4ccc(Cl)cc4)cc3)nc2c1`, for which the result was Active.

Tested on in the next test: not listed separately
Briefly: Anticlonogenic activity against ionizing radiation/chemotherapeutic agent-treated clonogenic tumor cells (unknown origin) preincubated for 12 to 48 hrs followed by growth medium addition without compound measured after 7 to 14 days by crystal violet staining-based assay relative to control. The class given is functional.
As for `NC(=O)c1ccc2[nH]c(-c3ccc(Oc4ccc(Cl)cc4)cc3)nc2c1`, the outcome was Active.

The values are drawn from ChEMBL document CHEMBL3882721, “2-phenyl benzimidazoles and imidazo-4,5|-pyridines as CDS1/CHK2-inhibitors and adjuvants to chemotherapy or radiation therapy in the treatment of cancer” (2007).
